In patent US20240319167A1, “CELL INFORMATION ACQUISITION METHOD, AND PROGRAM” (CANON KABUSHIKI KAISHA, priority 2023, published 2024):

What was measured:
[1] = test system: NCI-H322 cells; assay: Autofluorescence luminance ratio (G component/B component) after adding metabolism changing reagent; type: cell-based, human; conditions: antimycin A 1 μM where added, incubated an hour after D-glucose removal, FIG. 3
Description: (§1) Human lung cancer cells NCI-H322 (KAC Co., Ltd.) were cultured in a culture medium 103 for cell culture (KAC Co., Ltd.). Human lung cancer cells COR-L23 (KAC Co., Ltd.) were cultured in a culture medium 103 for cell culture (KAC Co., Ltd.). A cell culture vessel was a 35 mm glass bottom dish (IWAKI) for any case. […] The area of a nucleus region was acquired and labelled. […] Average value of G component/Average value of B component was calculated cell by cell and plotted as a box-and-whisker plot (FIG. 3). […] NCI-H322 cells were cultured in a 35 mm glass bottom dish, and COR-L23 cells were cultured in a 35 mm glass bottom dish. […] As negative control, only removal of D-glucose was performed for both NCI-H322 cells and COR-L23 cells to create samples not added with a metabolism changing reagent. An autofluorescence image of each of the samples was captured. Subsequently, nuclear staining and mitochondria staining were performed to stain nuclei and mitochondria, and similarly stained images were captured with an image capturing apparatus.

[2] = test system: COR-L23 cells; assay: as above; type: cell-based, human; conditions: antimycin A 1 μM where added, incubated an hour after D-glucose removal, FIG. 3
Description: as §1

## O=C[C@H](O)[C@@H](O)[C@H](O)[C@H](O)CO [D-glucose]
[1]
  G component/B component of autofluorescence (365 nm excitation/430 nm long pass filter) versus negative control: no significant difference
[2]
  G component/B component of autofluorescence (365 nm excitation/430 nm long pass filter) versus negative control: no significant difference
